From publication PMC2613973 (Insect biochemistry and molecular biology, 2008)

Assays:
Assay in all cases: Isothermal titration calorimetry
Assay type in all cases: binding
[1] = biological target: Moubatin (Ornithodoros moubata, UniProt Q04669)
[2] = biological target: T1, TSGP3 (Ornithodoros kalahariensis, UniProt Q8I9U0)
T1 sequence (Q8I9U0 20-163): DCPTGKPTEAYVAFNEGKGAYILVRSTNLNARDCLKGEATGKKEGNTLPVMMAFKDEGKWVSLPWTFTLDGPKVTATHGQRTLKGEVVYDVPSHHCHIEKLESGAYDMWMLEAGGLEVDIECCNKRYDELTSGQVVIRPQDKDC

[3] = biological target: T2, TSGP2 (Ornithodoros kalahariensis, UniProt Q8I9U1)
T2 sequence (Q8I9U1 20-163): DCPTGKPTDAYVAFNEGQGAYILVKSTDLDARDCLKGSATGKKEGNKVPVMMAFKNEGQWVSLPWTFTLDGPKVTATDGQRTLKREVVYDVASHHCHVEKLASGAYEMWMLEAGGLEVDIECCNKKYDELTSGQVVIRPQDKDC

[4] = biological target: T3, Moubatin-like 3 (Ornithodoros parkeri, UniProt A6N9T1)
T3 sequence (A6N9T1 20-176): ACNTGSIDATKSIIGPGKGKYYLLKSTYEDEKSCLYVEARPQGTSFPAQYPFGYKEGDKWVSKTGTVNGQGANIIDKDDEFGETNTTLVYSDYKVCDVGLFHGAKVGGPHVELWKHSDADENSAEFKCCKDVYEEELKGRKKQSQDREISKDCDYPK

[5] = biological target: TSGP3_G85R (Ornithodoros kalahariensis, UniProt Q8I9U0, G104R)
[6] = biological target: T2_H95D (Ornithodoros kalahariensis, UniProt Q8I9U1, H114D)
[7] = biological target: T2_M4 (Ornithodoros kalahariensis, UniProt Q8I9U1, K92N/T101K/T85M/T94V)
[8] = biological target: T2_ML (Ornithodoros kalahariensis, UniProt Q8I9U1, A132G/E131N/E136D/G133S/G134A/L130S/L135D/M127Q/M129Q/V137K)
[9] = biological target: TSGP2_R85G (Ornithodoros kalahariensis, UniProt Q8I9U1, R104G)

Structure (SMILES)	Kd [1] [nM]	Kd [2] [nM]	Kd [3] [nM]	Kd [4] [nM]	Kd [9] [nM]	other results
CCCCC/C=C\C/C=C\C/C=C\C/C=C\CCCC(=O)O [Arachidonic acid, arachidonic acid (AA)]	34 ± 6	59 ± 24	69 ± 7	–	–	–
NCCc1c[nH]c2ccc(O)cc12 [Serotonin, serotonin (5-hydroxytryptamine, 5-HT)]	–	–	–	116 ± 13	–	–
CCCCC[C@H](O)/C=C/C1CC2CC(C2)C1C/C=C\CCCC(=O)O (stereo partly drawn) [cTXA2, carbocyclic thromboxane A2]	24 ± 4	5 ± 0.7	–	–	–	–
NCCc1c[nH]cn1 [Histamine, histamine]	–	–	–	106 ± 3	–	–
CCCCC/C=C\C[C@@H](O)/C=C/C=C/C=C\[C@@H](O)CCCC(=O)O [LTB4, leukotriene B4]	16 ± 3	21 ± 5	18 ± 3	–	10 ± 1.6	Kd [5]: 228 ± 36 nM; Kd [6]: 12 ± 2 nM; Kd [7]: 6 ± 0.8 nM; Kd [8]: 12 ± 2 nM
CCCCC[C@H](O)/C=C/[C@@H]1[C@@H](C/C=C\CCCC(=O)O)[C@H]2CO[C@@H]1C2 [U46619, 9,11-dideoxy-9α,11α-methanoepoxy prostaglandin F2α (stable thromboxane A2 analog)]	20 ± 3	9 ± 1	–	–	7 ± 1	–
